Where a name gives a salt, the structure may show the parent alone.
molecular target: T1, IRAK4 (Homo sapiens, UniProt Q9NWZ3); experiment: IRAK-4 activity inhibition assay (Caliper); assay type: biochemical; settings: 37 μM ATP, 3.5 nM IRAK4
T1 sequence (Q9NWZ3 1-460): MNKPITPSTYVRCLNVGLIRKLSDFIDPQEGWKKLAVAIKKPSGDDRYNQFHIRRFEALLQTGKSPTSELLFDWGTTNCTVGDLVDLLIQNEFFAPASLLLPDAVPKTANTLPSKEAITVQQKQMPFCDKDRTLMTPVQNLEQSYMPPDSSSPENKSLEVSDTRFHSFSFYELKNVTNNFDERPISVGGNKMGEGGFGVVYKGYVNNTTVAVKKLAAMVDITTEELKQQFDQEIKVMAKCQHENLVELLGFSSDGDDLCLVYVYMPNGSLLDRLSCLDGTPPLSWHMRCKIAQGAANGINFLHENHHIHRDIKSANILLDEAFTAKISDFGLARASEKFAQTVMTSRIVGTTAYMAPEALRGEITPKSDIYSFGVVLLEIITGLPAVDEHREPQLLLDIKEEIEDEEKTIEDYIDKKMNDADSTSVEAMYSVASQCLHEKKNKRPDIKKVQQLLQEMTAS

| IC50 [µM] | Structure (SMILES) |
| --- | --- |
| < 5 | CN(C)[C@H]1CC[C@H](Oc2ncnc3sc4c(c23)[C@@H](C[C@H](O)c2cc[nH]n2)CC4)CC1 [Compound I-96, (S)-2-((R)-4-(((1r,4R)-4-(dimethylamino)cyclohexyl)oxy)-6,7-dihydro-5H-cyclopenta[4,5]thieno[2,3-d]pyrimidin-5-yl)-1-(1H-pyrazol-3-yl)ethanol] |
| < 5 | NC(=O)C[C@H]1CCc2sc3ncnc(N[C@H]4CC[C@H](N5CCOCC5)CC4)c3c21 [Compound I-97, 2-[(3R)-12-[[4-(morpholin-4-yl)cyclohexyl]amino]-7-thia-9,11-diazatricyclo[6.4.0.0̂[2,6]]dodeca-1(12),2(6),8,10-tetraen-3-yl]acetamide] |
| < 5 | CN(C)[C@H]1CC[C@H](Oc2ncnc3sc4c(c23)[C@@H](C[C@@H](O)c2cc[nH]n2)CC4)CC1 [Compound I-98, (R)-2-((R)-4-(((1r,4R)-4-(dimethylamino)cyclohexyl)oxy)-6,7-dihydro-5H-cyclopenta[4,5]thieno[2,3-d]pyrimidin-5-yl)-1-(1H-pyrazol-3-yl)ethanol] |
| < 5 | CN(C)[C@H]1CC[C@H](Nc2ncnc3sc4c(c23)[C@@H](CC(N)=O)CC4)CC1 [Compound I-99, 2-[(3R)-12-[[4-(dimethylamino)cyclohexyl]amino]-7-thia-9,11-diazatricyclo[6.4.0.0[2,6]]dodeca-1(12),2(6),8,10-tetraen-3-yl]acetamide] |
| < 5 | CC[C@@H](O)C[C@H]1CCc2sc3ncnc(O[C@H]4CC[C@](CC)(N(C)C)CC4)c3c21 [Compound I-101, (2R)-1-[(3R)-12-[[4-(dimethylamino)-4-ethylcyclohexyl]oxy]-7-thia-9,11-diazatricyclo[6.4.0.0[2,6]]dodeca-1(8),2(6),9,11-tetraen-3-yl]butan-2-ol] |
| < 5 | CC[C@]1(N(C)C)CC[C@H](Oc2ncnc3sc4c(c23)[C@@H](C[C@@H](C)O)CC4)CC1 [Compound I-102, (2R)-1-[(3R)-12-[[4-(dimethylamino)-4-ethylcyclohexyl]oxy]-7-thia-9,11-diazatricyclo[6.4.0.0[2,6]]dodeca-1(12),2(6),8,10-tetraen-3-yl]propan-2-ol] |
| 5 to 20 | CC[C@]1(N(C)C)CC[C@H](Oc2ncnc3sc4c(c23)[C@@H](C[C@H](C)O)CC4)CC1 [Compound I-103, (2S)-1-[(3R)-12-[[4-(dimethylamino)-4-ethylcyclohexyl]oxy]-7-thia-9,11-diazatricyclo[6.4.0.0[2,6]]dodeca-1(12),2(6),8,10-tetraen-3-yl]propan-2-ol] |
| 5 to 20 | CC[C@H](O)C[C@H]1CCc2sc3ncnc(O[C@H]4CC[C@](CC)(N(C)C)CC4)c3c21 [Compound I-104, (2S)-1-[(3R)-12-[[4-(dimethylamino)-4-ethylcyclohexyl]oxy]-7-thia-9,11-diazatricyclo[6.4.0.0[2,6]]dodeca-1(8),2(6),9,11-tetraen-3-yl]butan-2-ol] |
| < 5 | CC[C@H](O)C[C@H]1CCc2sc3ncnc(O[C@H]4CC[C@H](N(C)C)CC4)c3c21 [Compound I-107, (2S)-1-[(3R)-12-[[4-(dimethylamino)cyclohexyl]oxy]-7-thia-9,11-diazatricyclo[6.4.0.0[2,6]]dodeca-1(8),2(6),9,11-tetraen-3-yl]butan-2-ol] |
| < 5 | CN(C)[C@H]1CC[C@H](Oc2ncnc3sc4c(c23)C[C@@H](CCO)CC4)CC1 [Compound I-111, 2-[(12S)-3-[[4-(dimethylamino)cyclohexyl]oxy]-8-thia-4,6-diazatricyclo[7.4.0.0[2,7]]trideca-1(9),2(7),3,5-tetraen-12-yl]ethan-1-ol formate] |
| < 5 | CN(C)[C@H]1CC[C@H](Oc2ncnc3sc4c(c23)C[C@H](CC(N)=O)CC4)CC1 [Compound I-113, 2-[(12R)-3-[[4-(dimethylamino)cyclohexyl]oxy]-8-thia-4,6-diazatricyclo[7.4.0.0[2,7]]trideca-1(9),2(7),3,5-tetraen-12-yl]acetamide] |
